This is an account of results in patent US9340590B2 (priority 2011, dated 2016).

The experiment addresses hNav1.7 (Homo sapiens, UniProt Q15858). Kind of experiment: cell-based. Format: cell-based. The conditions noted are these: read-out: IWQ Use Nav1.7.
[1] abbreviates: IonWorks Quattro, clamped to −110 mV, depolarized to −10 mV, 5 min after compound, n=2.

Read-outs that look alike come from different tables or passages of the source. Positions of bridges follow the written chain, without caps; N, C: chain ends. Residues, ends and D or L forms follow the SMILES beside them.

Sequence of hNav1.7 (Q15858 whole entry, looked up): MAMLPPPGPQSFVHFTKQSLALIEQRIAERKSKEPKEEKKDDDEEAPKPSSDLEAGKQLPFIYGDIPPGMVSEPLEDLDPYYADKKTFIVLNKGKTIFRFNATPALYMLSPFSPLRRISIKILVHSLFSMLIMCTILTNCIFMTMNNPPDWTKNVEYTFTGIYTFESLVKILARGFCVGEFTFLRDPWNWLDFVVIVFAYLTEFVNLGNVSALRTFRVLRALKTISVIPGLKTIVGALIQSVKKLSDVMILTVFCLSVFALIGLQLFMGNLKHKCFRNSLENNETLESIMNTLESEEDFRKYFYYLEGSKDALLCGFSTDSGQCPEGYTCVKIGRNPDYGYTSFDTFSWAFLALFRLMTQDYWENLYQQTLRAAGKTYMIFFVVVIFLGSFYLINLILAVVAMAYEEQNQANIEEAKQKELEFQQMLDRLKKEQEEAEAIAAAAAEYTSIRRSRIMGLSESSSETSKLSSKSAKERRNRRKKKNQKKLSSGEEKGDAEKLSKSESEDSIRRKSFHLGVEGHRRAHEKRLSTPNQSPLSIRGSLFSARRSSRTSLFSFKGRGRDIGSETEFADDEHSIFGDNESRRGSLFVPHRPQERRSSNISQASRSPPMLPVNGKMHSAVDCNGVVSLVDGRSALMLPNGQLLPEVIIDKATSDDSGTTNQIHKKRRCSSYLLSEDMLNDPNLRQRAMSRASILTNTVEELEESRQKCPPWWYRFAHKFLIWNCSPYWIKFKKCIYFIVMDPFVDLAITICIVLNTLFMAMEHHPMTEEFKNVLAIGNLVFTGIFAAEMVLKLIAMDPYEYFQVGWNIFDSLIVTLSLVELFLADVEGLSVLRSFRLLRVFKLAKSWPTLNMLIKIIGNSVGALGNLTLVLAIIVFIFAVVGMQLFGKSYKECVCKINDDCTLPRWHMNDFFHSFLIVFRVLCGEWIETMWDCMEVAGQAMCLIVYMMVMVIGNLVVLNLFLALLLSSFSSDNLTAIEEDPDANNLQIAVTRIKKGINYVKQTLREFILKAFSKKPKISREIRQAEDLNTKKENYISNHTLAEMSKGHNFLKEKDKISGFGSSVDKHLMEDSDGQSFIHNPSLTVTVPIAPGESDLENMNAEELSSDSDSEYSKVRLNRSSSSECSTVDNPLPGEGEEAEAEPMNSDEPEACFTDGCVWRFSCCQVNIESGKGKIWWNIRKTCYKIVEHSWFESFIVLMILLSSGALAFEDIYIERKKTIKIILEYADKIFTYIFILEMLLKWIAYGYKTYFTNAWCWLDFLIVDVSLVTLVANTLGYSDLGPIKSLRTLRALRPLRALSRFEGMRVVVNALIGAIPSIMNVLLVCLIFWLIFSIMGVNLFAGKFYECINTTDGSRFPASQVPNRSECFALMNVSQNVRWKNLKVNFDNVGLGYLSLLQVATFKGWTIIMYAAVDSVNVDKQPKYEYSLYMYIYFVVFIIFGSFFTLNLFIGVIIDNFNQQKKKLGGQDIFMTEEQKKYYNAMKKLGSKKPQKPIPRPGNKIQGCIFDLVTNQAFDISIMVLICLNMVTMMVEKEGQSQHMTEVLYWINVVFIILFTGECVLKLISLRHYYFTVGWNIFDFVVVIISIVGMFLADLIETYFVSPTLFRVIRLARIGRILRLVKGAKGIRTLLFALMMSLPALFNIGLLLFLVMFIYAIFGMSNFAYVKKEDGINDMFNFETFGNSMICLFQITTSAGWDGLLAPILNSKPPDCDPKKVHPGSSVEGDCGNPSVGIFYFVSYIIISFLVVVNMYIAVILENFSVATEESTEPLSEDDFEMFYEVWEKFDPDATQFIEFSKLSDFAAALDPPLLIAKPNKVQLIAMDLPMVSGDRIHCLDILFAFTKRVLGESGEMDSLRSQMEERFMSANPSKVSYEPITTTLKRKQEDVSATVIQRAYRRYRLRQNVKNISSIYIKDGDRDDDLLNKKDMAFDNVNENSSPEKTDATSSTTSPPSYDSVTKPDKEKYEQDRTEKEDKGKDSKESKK

On to `CC[C@H](C)[C@@H]1NC(=O)[C@@H]2CSSC[C@@H]3NC(=O)[C@H](C(C)C)NC(=O)[C@H](CC(C)C)NC(=O)[C@H](CC(N)=O)NC(=O)[C@@H]4CCCN4C(=O)[C@H](CCCNC(=N)N)NC(=O)[C@H](CSSC[C@H](NC(=O)[C@@H](N)CC(=O)O)C(=O)N[C@@H](CC(C)C)C(=O)NCC(=O)N[C@@H](Cc4ccccc4)C(=O)N[C@@H](CCSC)C(=O)N[C@@H](CCCNC(=N)N)C(=O)N[C@@H](CCCCN)C(=O)N2)NC(=O)[C@H](CSSC[C@@H](C(=O)N[C@@H](CCCCN)C(=O)N[C@@H](Cc2ccc(O)cc2)C(=O)N[C@@H](CCC(=O)O)C(=O)N[C@@H](Cc2ccccc2)C(N)=O)NC(=O)[C@H](Cc2c[nH]c4ccccc24)NC(=O)[C@H](CCCCN)NC(=O)[C@H](Cc2c[nH]cn2)NC(=O)[C@H]([C@@H](C)O)NC(=O)[C@H](CCCNC(=N)N)NC(=O)[C@H](CO)NC3=O)NC(=O)[C@H](CCCCN)NC(=O)[C@H](CC(=O)O)NC(=O)[C@H](CC(N)=O)NC(=O)[C@H](CC(=O)O)NC(=O)[C@@H]2CCCN2C1=O` [SEQ ID NO: 33, [Glu33]GpTx-1] (H-DCLGFMRKCIPDNDKCCRPNLVCSRTHKWCKYEF-NH2; disulfide 2-17, 9-23, 16-30), for which the IC50 turned out to be 560 nM. Regarding `CC[C@H](C)[C@@H]1NC(=O)[C@@H]2CSSC[C@@H]3NC(=O)[C@H](C(C)C)NC(=O)[C@H](CC(C)C)NC(=O)[C@H](CC(N)=O)NC(=O)[C@@H]4CCCN4C(=O)[C@H](CCCNC(=N)N)NC(=O)[C@H](CSSC[C@H](NC(=O)[C@@H](N)CCCCN)C(=O)N[C@@H](CC(C)C)C(=O)NCC(=O)N[C@@H](Cc4ccccc4)C(=O)N[C@@H](CCSC)C(=O)N[C@@H](CCCNC(=N)N)C(=O)N[C@@H](CCCCN)C(=O)N2)NC(=O)[C@H](CSSC[C@@H](C(=O)N[C@@H](CCCCN)C(=O)N[C@@H](Cc2ccc(O)cc2)C(=O)N[C@H](C(=O)N[C@@H](Cc2ccccc2)C(N)=O)C(C)C)NC(=O)[C@H](Cc2c[nH]c4ccccc24)NC(=O)[C@H](CCCCN)NC(=O)[C@H](Cc2c[nH]cn2)NC(=O)[C@H]([C@@H](C)O)NC(=O)[C@H](CCCNC(=N)N)NC(=O)[C@H](CO)NC3=O)NC(=O)[C@H](CCCCN)NC(=O)[C@H](CC(=O)O)NC(=O)[C@H](CC(N)=O)NC(=O)[C@H](CC(=O)O)NC(=O)[C@@H]2CCCN2C1=O` [SEQ ID NO: 37] (H-KCLGFMRKCIPDNDKCCRPNLVCSRTHKWCKYVF-NH2; disulfide 2-17, 9-23, 16-30), the IC50 under setting [1] worked out at 150 nM. With `CC[C@H](C)[C@@H]1NC(=O)[C@@H]2CSSC[C@@H]3NC(=O)[C@H](C(C)C)NC(=O)[C@H](CC(C)C)NC(=O)[C@H](CC(N)=O)NC(=O)[C@@H]4CCCN4C(=O)[C@H](CCCNC(=N)N)NC(=O)[C@H](CSSC[C@H](NC(=O)[C@@H](N)CCCNC(=N)N)C(=O)N[C@@H](CC(C)C)C(=O)NCC(=O)N[C@@H](Cc4ccccc4)C(=O)N[C@@H](CCSC)C(=O)N[C@@H](CCCNC(=N)N)C(=O)N[C@@H](CCCCN)C(=O)N2)NC(=O)[C@H](CSSC[C@@H](C(=O)N[C@@H](CCCCN)C(=O)N[C@@H](Cc2ccc(O)cc2)C(=O)N[C@H](C(=O)N[C@@H](Cc2ccccc2)C(N)=O)C(C)C)NC(=O)[C@H](Cc2c[nH]c4ccccc24)NC(=O)[C@H](CCCCN)NC(=O)[C@H](Cc2c[nH]cn2)NC(=O)[C@H]([C@@H](C)O)NC(=O)[C@H](CCCNC(=N)N)NC(=O)[C@H](CO)NC3=O)NC(=O)[C@H](CCCCN)NC(=O)[C@H](CC(=O)O)NC(=O)[C@H](CC(N)=O)NC(=O)[C@H](CC(=O)O)NC(=O)[C@@H]2CCCN2C1=O` [SEQ ID NO: 62] (H-RCLGFMRKCIPDNDKCCRPNLVCSRTHKWCKYVF-NH2; disulfide 2-17, 9-23, 16-30), the IC50 amounted to 110 nM.

As for `CSCC[C@@H]1NC(=O)[C@H](Cc2ccccc2)NC(=O)CNC(=O)[C@H](CC(C)C)NC(=O)[C@@H](NC(=O)[C@@H](N)CC(=O)O)CSSC[C@@H]2NC(=O)[C@@H]3CSSC[C@@H](C(=O)N[C@@H](CCCCN)C(=O)N[C@@H](Cc4ccc(O)cc4)C(=O)N[C@H](C(=O)N[C@@H](Cc4ccccc4)C(N)=O)C(C)C)NC(=O)[C@H](Cc4c[nH]c5ccccc45)NC(=O)[C@H](CCCCN)NC(=O)[C@H](Cc4c[nH]cn4)NC(=O)[C@H]([C@@H](C)O)NC(=O)[C@H](CCCNC(=N)N)NC(=O)[C@H](CO)NC(=O)[C@H](CSSC[C@H](NC(=O)[C@H](CCCCN)NC(=O)[C@H](CCCNC(=N)N)NC1=O)C(=O)N[C@@H](CC(=O)O)C(=O)N1CCC[C@H]1C(=O)N[C@@H](CC(=O)O)C(=O)N[C@@H](CC(N)=O)C(=O)N[C@@H](CC(=O)O)C(=O)N[C@@H](CCCCN)C(=O)N3)NC(=O)[C@H](C(C)C)NC(=O)[C@H](CC(C)C)NC(=O)[C@H](CC(N)=O)NC(=O)[C@@H]1CCCN1C(=O)[C@H](CCCNC(=N)N)NC2=O` [SEQ ID NO: 119, [Asp10]GpTx-1] (H-DCLGFMRKCDPDNDKCCRPNLVCSRTHKWCKYVF-NH2; disulfide 2-17, 9-23, 16-30), the IC50 amounted to 220 nM. In the case of `CC[C@H](C)[C@@H]1NC(=O)[C@@H]2CSSC[C@@H]3NC(=O)[C@H](C(C)C)NC(=O)[C@H](CC(C)C)NC(=O)[C@H](CC(N)=O)NC(=O)[C@@H]4CCCN4C(=O)[C@H](CCCNC(=N)N)NC(=O)[C@H](CSSC[C@H](NC(=O)[C@@H](N)CC(=O)O)C(=O)N[C@@H](CC(C)C)C(=O)N[C@@H](C)C(=O)N[C@@H](Cc4ccccc4)C(=O)N[C@@H](CCSC)C(=O)N[C@@H](CCCNC(=N)N)C(=O)N[C@@H](CCCCN)C(=O)N2)NC(=O)[C@H](CSSC[C@@H](C(=O)N[C@@H](CCCCN)C(=O)N[C@@H](Cc2ccc(O)cc2)C(=O)N[C@H](C(=O)N[C@@H](Cc2ccccc2)C(N)=O)C(C)C)NC(=O)[C@H](Cc2c[nH]c4ccccc24)NC(=O)[C@H](CCCCN)NC(=O)[C@H](Cc2c[nH]cn2)NC(=O)[C@H]([C@@H](C)O)NC(=O)[C@H](CCCNC(=N)N)NC(=O)[C@H](CO)NC3=O)NC(=O)[C@H](CCCCN)NC(=O)[C@H](CC(=O)O)NC(=O)[C@H](CC(N)=O)NC(=O)[C@H](CC(=O)O)NC(=O)[C@@H]2CCCN2C1=O` [SEQ ID NO: 141] (H-DCLAFMRKCIPDNDKCCRPNLVCSRTHKWCKYVF-NH2; disulfide 2-17, 9-23, 16-30), the IC50 under setting [1] was 270 nM. With `CC[C@H](C)[C@@H]1NC(=O)[C@@H]2CSSC[C@@H]3NC(=O)[C@H](C(C)C)NC(=O)[C@H](CC(C)C)NC(=O)[C@H](CC(N)=O)NC(=O)[C@@H]4CCCN4C(=O)[C@H](CCCNC(=N)N)NC(=O)[C@H](CSSC[C@H](NC(=O)[C@@H](N)CC(=O)O)C(=O)N[C@@H](CC(C)C)C(=O)NCC(=O)N[C@@H](Cc4ccccc4)C(=O)N[C@@H](CCC(=O)O)C(=O)N[C@@H](CCCNC(=N)N)C(=O)N[C@@H](CCCCN)C(=O)N2)NC(=O)[C@H](CSSC[C@@H](C(=O)N[C@@H](CCCCN)C(=O)N[C@@H](Cc2ccc(O)cc2)C(=O)N[C@H](C(=O)N[C@@H](Cc2ccccc2)C(N)=O)C(C)C)NC(=O)[C@H](Cc2c[nH]c4ccccc24)NC(=O)[C@H](CCCCN)NC(=O)[C@H](Cc2c[nH]cn2)NC(=O)[C@H]([C@@H](C)O)NC(=O)[C@H](CCCNC(=N)N)NC(=O)[C@H](CO)NC3=O)NC(=O)[C@H](CCCCN)NC(=O)[C@H](CC(=O)O)NC(=O)[C@H](CC(N)=O)NC(=O)[C@H](CC(=O)O)NC(=O)[C@@H]2CCCN2C1=O` [SEQ ID NO: 144] (H-DCLGFERKCIPDNDKCCRPNLVCSRTHKWCKYVF-NH2; disulfide 2-17, 9-23, 16-30), under setting [1], the IC50 was 3510 nM. On to `CSCC[C@@H]1NC(=O)[C@H](Cc2ccccc2)NC(=O)CNC(=O)[C@H](CC(C)C)NC(=O)[C@@H](NC(=O)[C@@H](N)CC(=O)O)CSSC[C@@H]2NC(=O)[C@@H]3CSSC[C@@H](C(=O)N[C@@H](CCCCN)C(=O)N[C@@H](Cc4ccc(O)cc4)C(=O)N[C@H](C(=O)N[C@@H](Cc4ccccc4)C(N)=O)C(C)C)NC(=O)[C@H](Cc4c[nH]c5ccccc45)NC(=O)[C@H](CCCCN)NC(=O)[C@H](Cc4c[nH]cn4)NC(=O)[C@H]([C@@H](C)O)NC(=O)[C@H](CCCNC(=N)N)NC(=O)[C@H](CO)NC(=O)[C@H](CSSC[C@H](NC(=O)[C@H](CCCCN)NC(=O)[C@H](CCCNC(=N)N)NC1=O)C(=O)N[C@@H](CCC(=O)O)C(=O)N1CCC[C@H]1C(=O)N[C@@H](CC(=O)O)C(=O)N[C@@H](CC(N)=O)C(=O)N[C@@H](CC(=O)O)C(=O)N[C@@H](CCCCN)C(=O)N3)NC(=O)[C@H](C(C)C)NC(=O)[C@H](CC(C)C)NC(=O)[C@H](CC(N)=O)NC(=O)[C@@H]1CCCN1C(=O)[C@H](CCCNC(=N)N)NC2=O` [SEQ ID NO: 146, [Glu10]GpTx-1] (H-DCLGFMRKCEPDNDKCCRPNLVCSRTHKWCKYVF-NH2; disulfide 2-17, 9-23, 16-30), for which the IC50 (IonWorks Quattro, Use) worked out at 90 nM. `CC[C@H](C)[C@@H]1NC(=O)[C@@H]2CSSC[C@@H]3NC(=O)[C@H](C(C)C)NC(=O)[C@H](CC(C)C)NC(=O)[C@H](CC(N)=O)NC(=O)[C@@H]4CCCN4C(=O)[C@H](CCCNC(=N)N)NC(=O)[C@H](CSSC[C@H](NC(=O)[C@@H](N)CC(=O)O)C(=O)N[C@@H](CC(C)C)C(=O)NCC(=O)N[C@@H](Cc4ccccc4)C(=O)N[C@@H](CCSC)C(=O)N[C@@H](CCCNC(=N)N)C(=O)N[C@@H](CCCCN)C(=O)N2)NC(=O)[C@H](CSSC[C@@H](C(=O)N[C@@H](CCCCN)C(=O)N[C@@H](Cc2ccc(O)cc2)C(=O)N[C@H](C(=O)N[C@@H](Cc2ccccc2)C(N)=O)C(C)C)NC(=O)[C@H](Cc2c[nH]c4ccccc24)NC(=O)[C@H](CCCCN)NC(=O)[C@H](Cc2c[nH]cn2)NC(=O)[C@H]([C@@H](C)O)NC(=O)[C@H](CCCNC(=N)N)NC(=O)[C@H](CO)NC3=O)NC(=O)[C@H](CCCCN)NC(=O)[C@H](CC(=O)O)NC(=O)[C@H](CC(N)=O)NC(=O)[C@H](CC(=O)O)NC(=O)[C@H](CCC(=O)O)NC1=O` [SEQ ID NO: 147, [Glu11]GpTx-1] (H-DCLGFMRKCIEDNDKCCRPNLVCSRTHKWCKYVF-NH2; disulfide 2-17, 9-23, 16-30): for the setting “IonWorks Quattro, Use”, the IC50 was 220 nM.
